Assays:
BRD2 BD1 = target: T1, BRD2 BD1 (Homo sapiens, UniProt P25440); assay: Biosensor binding kinetics assay (Octet), BRD2 BD1
T1 construct: biotinylated BRD2 BD1; biotin (biotinylated protein); made in house; host or cells: Escherichia coli BL21(DE3)
Experimental: (§1) Binding kinetics were assessed using the Octet® R2 system (Sartorius, Göttingen, Germany). Superstreptavidin biosensors were loaded with biotinylated BRD2 BD1, BRD2 BD2, BRD3 BD1, BRD3 BD2, BRD4 BD1, BRD4 BD2, or biotin alone (as a negative control) in PBST buffer (phosphate-buffered saline containing 0.02% Tween 20 and 5% DMSO). The sensors were then dipped into compound solutions for 10 min. To evaluate association kinetics (kon), each sensor was exposed to serial dilutions of the protein for 180 s, followed by dipping them into PBST buffer to assess dissociation kinetics (koff). For control, a separate sensor loaded with the compound was dipped into PBST alone. Competition binding assays were performed by exposing the compound-loaded sensor to mixtures of proteins and test compounds.

BRD2 BD2 = target: T2, BRD2 BD2 (Homo sapiens, UniProt P25440); assay: Biosensor binding kinetics assay (Octet), BRD2 BD2
T2 construct: biotinylated BRD2 BD1, BRD2 BD2; biotin (biotinylated protein); made in house; host or cells: Escherichia coli BL21(DE3)
Experimental: as §1

BRD4 BD2 = target: T3, BRD4 BD2 (Homo sapiens, UniProt O60885); assay: Biosensor binding kinetics assay (Octet), BRD4 BD2
T3 construct: BRD3 BD2, BRD4 BD1, BRD4 BD2; biotin (biotinylated protein); made in house; host or cells: Escherichia coli BL21(DE3)
Experimental: as §1

[1] = test system: mouse primary articular chondrocytes; assay: Chondrocyte viability by lactate dehydrogenase (LDH) assay; type: cell-based; details: 12 h, NCD 0, 10, 20, 50, 100 µM, JQ1 different concentrations
[2] = test system: PGE2 production in IL-1β-treated mouse articular chondrocytes; assay: PGE2 ELISA in IL-1β-treated chondrocytes; type: cell-based; details: NCD 10, 50, 100 µM, dose-dependent
Experimental: NCD was supplied by Benobio Co (Gyeonggi-do, Korea), and IL‐1β was purchased from GenScript (Piscataway, NJ, USA). NCDs were dissolved in phosphate-buffered saline (PBS) for oral administration or IA injection.
PGE2 expression was determined by enzyme-linked immunosorbent assay (ELISA) using a PGE2 Immunoassay Kit (R&D Systems, Minneapolis, MN, USA). The levels of PGE2 in the conditioned medium of articular chondrocytes were determined. Collagenase activity was measured using a VICTOR X3 Microplate Reader (PerkinElmer, Waltham, MA, USA) at the excitation/emission wavelengths of 490/530 nm following the protocol provided by the manufacturer.

[3] = test system: DMM-induced OA in C57BL/6J mice; assay: DMM-induced OA mouse model, intra-articular injection; type: in vivo
Experimental: All experiments were independently performed with at least three biological replicates to ensure reproducibility. For in vivo studies, animals were randomly assigned to treatment or control groups. To create a DMM-induced OA model, DMM surgery was performed on 12-week-old male C57BL/6J mice, following a previously reported protocol ([26]). Subsequently, NCD was either orally administered or injected in mice; the NCD (50 mg/kg) was orally administered on alternate days 4 weeks after DMM, whereas IA knee injection of NCD (10 μg) was administered once a week after 4 weeks. The mouse knee joint was processed for histological analysis 10 weeks after surgery. All experiments were independently performed with at least three biological replicates to ensure reproducibility. For in vivo studies, animals were randomly assigned to treatment or control groups. For in vitro experiments, cells were plated using a randomized layout across multi-well plates to avoid positional effects and ensure unbiased treatment assignment
All histological samples were prepared independently by two researchers. Cartilage destruction was evaluated based on Safranin O staining and scored using the OA Research Association International (OARSI) grading system ([29]). Additionally, all histological samples were analyzed through osteophyte maturity scoring and subchondral bone plate (SBP) thickness. Osteophyte maturity was scored as described previously ([30]). Briefly, the scoring was as follows: 0 = none, 1 = predominantly cartilaginous, 2 = mixed cartilage and bone with active vascular invasion and endochondral ossification, 3 = predominantly bone. SBP thickness was measured to analyze subchondral bone sclerosis. All experiments were independently performed over at least three replicates. […] For each sample, measurements were performed on serial sections, and the mean value was calculated for analysis. The samples were […] by treating with 0.5 M ethylenediamine tetraacetic acid (pH 8.0) for 2 weeks. Next, mouse knee joint samples were fixed using 4% paraformaldehyde and embedded in paraffin. The paraffin-embedded samples were cut into 5-μm sections and fixed on glass slides. The tissue sections were then hydrated using a graded ethanol series, which removed paraffin and xylene. Mouse knee joint sections were immunohistochemically analyzed using anti-Mmp3 (ab52915, Abcam, Cambridge, UK), anti-Mmp13 (ab51072, Abcam), and anti-Cox2 (66351-I-Ig, ProteinTech, Rosemont, ILllinois, USA).

[4] = PK analysis after intravenous administration in SD rats; type: in vivo, rat; design: AUC: unit not given here; details: for AUC(0-t) / Cmax / half-life: male, rat, plasma
Experimental: SD rats (male, 6 weeks old) were obtained from Orient Bio (Seoul, Korea) and housed under pathogen-free conditions. All animal procedures were conducted in accordance with the guidelines of the Animal Care Facility at Biotoxtech Co., Ltd. (Chungcheongbuk-do, Korea). NCD was administered intravenously (IV) to SD rats at doses of 5, 10, or 20 mg/kg to evaluate its pharmacokinetics. Blood samples were collected from the jugular vein at various time points, mixed with 3.8% (w/v) sodium citrate, and centrifuged at 8,000 × g for 30 min to obtain plasma. The plasma samples were then mixed with acetonitrile (33%, v/v), vortexed for 5 min, and centrifuged at 13,000 × g for 10 min. The concentration of NCD in plasma was determined using high-performance liquid chromatography (HPLC; Shimadzu, Japan) equipped with a UV detector. Pharmacokinetic parameters were calculated using Microsoft Excel ([31]).

[5] = IA injection 10 μg once a week from 4 weeks after DMM, 10 weeks after surgery, vs PBS

T2 sequence (P25440 344-453 limits assumed): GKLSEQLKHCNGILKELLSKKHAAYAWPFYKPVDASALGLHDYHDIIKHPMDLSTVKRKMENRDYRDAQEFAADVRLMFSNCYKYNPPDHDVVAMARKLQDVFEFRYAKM
T1 sequence (P25440 74-180 limits assumed): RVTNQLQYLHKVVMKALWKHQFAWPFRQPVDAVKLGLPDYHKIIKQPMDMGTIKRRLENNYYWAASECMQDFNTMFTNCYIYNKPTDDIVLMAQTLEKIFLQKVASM

CNC(=O)CC1C(=O)NCCN1Cc1ccc(-c2ccccc2-c2cccc3c2CN(C)C3=O)o1 (stereo not shown) [NCD, N-methyl-2-(1-((5-(2-(2-methyl-1-oxoisoindolin-4-yl)phenyl)furan-2-yl)methyl)-3-oxopiperazin-2-yl)acetamide]
Kd (BRD2 BD1): 26 nM
Kd (BRD2 BD2): 104 nM
Kd (BRD4 BD2): > 1000 nM
Cell viability / cytotoxicity (LDH assay) [1]: no significant cytotoxic effects
PGE2 production [2]: significantly decreased
OARSI grade [3, 5]: significant reduction
Osteophyte maturity [3, 5]: significant reduction
SBP thickness [3, 5]: significant reduction
Expression of Mmp3, Mmp13 and Cox2 in knees (immunohistochemistry) ([3]; IA injection 10 μg, DMM mice): lower expression levels
NITEGE expression ([3]; IA injection 10 μg, DMM mice): reduced
Type II collagen levels (immunohistochemistry) ([3]; IA injection 10 μg, DMM mice): partially preserved
AUC ([4]; 5 mg/kg): 631.83
AUC ([4]; 20 mg/kg): 4526.66
AUC(0-t) ([4]; 5 mg/kg): 632 ng·h/mL
Cmax ([4]; 5 mg/kg): 1110 ng/mL
half-life ([4]; 5 mg/kg): 24.6 min
AUC(0-t) ([4]; 10 mg/kg): 1730 ng·h/mL
Cmax ([4]; 10 mg/kg): 2560 ng/mL
half-life ([4]; 10 mg/kg): 35.4 min
AUC(0-t) ([4]; 20 mg/kg): 4530 ng·h/mL
Cmax ([4]; 20 mg/kg): 4150 ng/mL
half-life ([4]; 20 mg/kg): 45.6 min

Reference: article PMC12350126, “A novel carboxamide bromodomain inhibitor attenuates osteoarthritis via epigenetic repression of NF-κB and MAPK signaling” (Frontiers in Immunology, 2025)
